This note sets out measurements from patent US10882856B2 (BeiGene, Ltd., priority 2017, dated 2021).

Some results are limits rather than exact numbers.

Test [1] has as its target T1, IDO1 (Homo sapiens, UniProt P14902). The experiment in a line: IDO1 enzymatic assay. It is filed as biochemical. Set-up: His tag (N); made in house; host or cells: E. coli. The note with it: read-out: Enzyme IC50 IDO1. The method in brief:
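Recombinant IDO1 carrying an N-terminal His tag and purified from E. coli was used at 50 nM with test compound, 1.3 mM D-tryptophan, 5 mM L-ascorbic acid, methylene blue and 0.4 mg/mL catalase in 50 mM potassium phosphate pH 7.5 containing 0.1% BSA. This mixture was incubated at 24 °C for 1.5 hours, after which N'-formylkynurenine formation was followed continuously at 321 nm for 1 hour and activity was taken as the slope. IC50 was derived from the enzyme activity remaining as compound concentration increased.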

Test [2] has as its target T2, cellular TDO2 in HEK293-TDO2 cells (Homo sapiens, UniProt P48775).
T2 construct: expressed in transfected cells; host or cells: HEK293 (ATCC), stably transfected
The experiment in a line: 293-TDO2 cell-based assay (Kyn colorimetric). The note with it: 48 hours of incubation. The method in brief:
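Kyn formed from L-Trp was read colorimetrically at 480 nm (TCA deproteinisation, then 2% 4-(dimethylamino)benzaldehyde). Compounds were added to 293-TDO2 cells 4 h post-seeding and left 48 h at 37° C. A four-parameter logistic model gave IC50 values.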

The target in test [3] is T1, IDO1. The experiment in a line: Hela cell-based IDO1 assay. The conditions noted are these: Hela cells. In a few lines: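 HeLa cells were seeded at 8000 per well in 96-well plates in phenol red-free DMEM with 10% FBS. After 4 hours, DMSO-diluted compound dilutions were added with IFN-γ (final 100 ng/mL) and 0.4 mM L-Trp, and cells were kept 48 hours at 37 °C, 5% CO2. Supernatant was deproteinised with trichloroacetic acid, and kynurenine was measured at 480 nm after adding 2% 4-(dimethylamino)benzaldehyde. Potency came from four-parameter logistic fits in XLfit.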

T1 sequence (P14902 whole entry): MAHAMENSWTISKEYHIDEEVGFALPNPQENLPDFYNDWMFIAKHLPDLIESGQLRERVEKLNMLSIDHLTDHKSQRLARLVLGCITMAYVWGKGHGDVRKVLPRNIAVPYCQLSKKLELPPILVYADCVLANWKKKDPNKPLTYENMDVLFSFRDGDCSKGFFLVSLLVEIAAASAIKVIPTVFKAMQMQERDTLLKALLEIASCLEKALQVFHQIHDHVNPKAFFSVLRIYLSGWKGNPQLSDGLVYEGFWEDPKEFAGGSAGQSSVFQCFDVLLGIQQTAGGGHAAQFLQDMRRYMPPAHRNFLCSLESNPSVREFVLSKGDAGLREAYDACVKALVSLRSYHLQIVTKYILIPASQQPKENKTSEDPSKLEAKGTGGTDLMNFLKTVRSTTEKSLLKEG
T2 sequence (P48775 whole entry): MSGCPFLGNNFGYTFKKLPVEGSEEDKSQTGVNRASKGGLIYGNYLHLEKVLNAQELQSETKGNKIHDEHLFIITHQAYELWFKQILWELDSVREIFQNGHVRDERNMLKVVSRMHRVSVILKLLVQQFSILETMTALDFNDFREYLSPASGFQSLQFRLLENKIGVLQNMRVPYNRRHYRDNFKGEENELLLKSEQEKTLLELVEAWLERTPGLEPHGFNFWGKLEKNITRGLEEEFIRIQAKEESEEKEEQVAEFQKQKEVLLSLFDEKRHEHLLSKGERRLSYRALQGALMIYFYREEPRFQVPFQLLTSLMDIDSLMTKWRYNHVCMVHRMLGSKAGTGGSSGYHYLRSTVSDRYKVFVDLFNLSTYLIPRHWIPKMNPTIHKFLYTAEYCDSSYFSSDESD

With `CN(C)C(=O)c1ccc([C@H]2CC[C@H]([C@H](O)c3c(C4CC4)ccc4cncn34)CC2)cc1` (single isomer, unassigned) [Example D125a], in test [1], the IC50 amounted to 0.014 µM. Also, the EC50 in test [2] was more than 10 µM; in test [3] it was 0.46 µM.

`CN(C)C(=O)c1ccc([C@H]2CC[C@H]([C@@H](O)c3c(C4CC4)ccc4cncn34)CC2)cc1` (single isomer, unassigned) [Example D125b]: the IC50 in test [1] was determined as 1.6 µM. Also, the half-maximal effective concentration (EC50) in test [2] is more than 10 µM; in test [3], 9.77 µM.

For `O[C@H](c1c(C2CC2)ccc2cncn12)[C@H]1CC[C@H](c2ccc(F)c(F)c2)CC1` (single isomer, unassigned) [Example D126a], in test [1], the IC50 is 0.018 µM. In addition, the EC50 in test [2] is more than 10 µM; in test [3] it was 0.031 µM.

Turning to `O[C@@H](c1c(C2CC2)ccc2cncn12)[C@H]1CC[C@H](c2ccc(F)c(F)c2)CC1` (single isomer, unassigned) [Example D126b], the IC50 in test [1] was more than 10 µM. The EC50 in test [2] is more than 10 µM; in test [3], 6.52 µM.

With `O[C@H](c1c(C2CC2)ccc2cncn12)[C@H]1CC[C@H](c2ccc(F)cc2F)CC1` (single isomer, unassigned) [Example D127a], the 50% inhibitory concentration (IC50) in test [1] was 0.016 µM. Also, the EC50 in test [2] is more than 10 µM; in test [3] it was 0.083 µM.

With `O[C@@H](c1c(C2CC2)ccc2cncn12)[C@H]1CC[C@H](c2ccc(F)cc2F)CC1` (single isomer, unassigned) [Example D127b], in test [1], the IC50 was determined as 2.7 µM. Moreover, the concentration giving a half-maximal response (EC50) in test [2] was more than 10 µM; in test [3], 4.62 µM.

On to `O[C@H](c1c(C2CC2)ccc2cncn12)[C@H]1CC[C@H](c2ccc(Cl)c(F)c2)CC1` (single isomer, unassigned) [Example D128a], for which the IC50 in test [1] amounted to 0.019 µM. The EC50 in test [2] was more than 10 µM; in test [3], 0.127 µM.

`O[C@@H](c1c(C2CC2)ccc2cncn12)[C@H]1CC[C@H](c2ccc(Cl)c(F)c2)CC1` (single isomer, unassigned) [Example D128b]: the IC50 in test [1] was more than 10 µM. Further, the EC50 was more than 10 µM in test [2] and 8.57 µM in test [3].

As for `O[C@H](c1c(C2CC2)ccc2cncn12)[C@H]1CC[C@H](c2ccc(F)c(Cl)c2)CC1` (single isomer, unassigned) [Example D129a], the IC50 in test [1] was determined as 0.021 µM. The EC50 in test [2] is more than 10 µM; in test [3], 0.056 µM.

For `O[C@@H](c1c(C2CC2)ccc2cncn12)[C@H]1CC[C@H](c2ccc(F)c(Cl)c2)CC1` (single isomer, unassigned) [Example D129b], the IC50 in test [1] turned out to be 7.67 µM. For the same compound, the results for the EC50 in test [2] and in test [3] were more than 10 µM and 5.12 µM, respectively.

Turning to `OC(c1c(C2CC2)ccc2cncn12)[C@H]1CC[C@H](c2ccc(F)cc2Cl)CC1` (single isomer, unassigned) [Example D130a], the IC50 in test [1] turned out to be 0.03 µM. Besides, the values for the EC50 in test [2] and in test [3] were more than 10 µM and 0.203 µM, respectively.

Turning to `OC(c1c(C2CC2)ccc2cncn12)[C@H]1CC[C@H](c2ccc(F)cc2Cl)CC1` (single isomer, unassigned) [Example D130b], the IC50 in test [1] is more than 10 µM. The figures for the EC50 in test [2] and in test [3] were more than 10 µM and 9.37 µM, respectively.

Regarding `OC(c1c(C2CC2)ccc2cncn12)[C@H]1CC[C@H](c2ccc(Cl)cc2F)CC1` (single isomer, unassigned) [Example D131a], the IC50 in test [1] came out at 0.032 µM. Further, the EC50 in test [2] was more than 10 µM; in test [3], 0.275 µM.

Take `OC(c1c(C2CC2)ccc2cncn12)[C@H]1CC[C@H](c2cccc(F)c2F)CC1` (single isomer, unassigned) [Example D132a]: the IC50 in test [1] came to 0.021 µM. Also, the EC50 in test [2] is more than 10 µM; in test [3], 0.113 µM.

For `O[C@@H](c1c(C2CC2)ccc2cncn12)[C@H]1CC[C@H](c2ccc3sccc3c2)CC1` (single isomer, unassigned) [Example D133b], the concentration for half-maximal inhibition (IC50) in test [1] was more than 10 µM. Also, the EC50 in test [2] is more than 10 µM; in test [3], 8.9 µM.

`OC(c1c(C2CC2)ccc2cncn12)[C@H]1CC[C@H](c2ccc3ccsc3c2)CC1` (single isomer, unassigned) [Example D134b]: the concentration for half-maximal inhibition (IC50) in test [1] was found to be 2.7 µM. Further, the figures for the EC50 in test [2] and in test [3] were more than 10 µM and 5.67 µM, respectively.

On to `O[C@@H](c1c(C2CC2)ccc2cncn12)[C@H]1CC[C@H](c2cccc3ccccc32)CC1` (single isomer, unassigned) [Example D135b], for which the IC50 in test [1] was 5.2 µM. In addition, the values for the concentration for a half-maximal effect (EC50) in test [2] and in test [3] were more than 10 µM and 6.75 µM, respectively.

As to `O[C@@H](c1c(C2CC2)ccc2cncn12)[C@H]1CC[C@H](c2ccc3ccccc3c2)CC1` (single isomer, unassigned) [Example D136b], the IC50 in test [1] is more than 10 µM. Further, the results for the EC50 in test [2] and in test [3] were more than 10 µM and 7.19 µM, respectively.

For the compound `O[C@@H](c1c(C2CC2)ccc2cncn12)[C@H]1CC[C@H](c2ccc(F)c3ccccc32)CC1` (single isomer, unassigned) [Example D137b], in test [1], the IC50 is 1.7 µM. In addition, the EC50 was more than 10 µM in test [2] and 2.1 µM in test [3].

As to `COc1ccc([C@H]2CC[C@H](C(O)c3c(C4CC4)ccc4cncn34)CC2)c2ccccc12` (single isomer, unassigned) [Example D139a], the IC50 in test [1] amounted to 0.033 µM. For the same compound, the values for the EC50 in test [2] and in test [3] were more than 10 µM and 0.443 µM, respectively.

Turning to `COc1ccc([C@H]2CC[C@H](C(O)c3c(C4CC4)ccc4cncn34)CC2)c2ccccc12` (single isomer, unassigned) [Example D139b], in test [1], the 50% inhibitory concentration (IC50) is more than 10 µM. The values for the EC50 in test [2] and in test [3] were more than 10 µM and 4.47 µM, respectively.

As for `O[C@@H](c1c(C2CC2)ccc2cncn12)[C@H]1CC[C@H](c2ccnc3ccccc32)CC1` (single isomer, unassigned) [Example D140b], the IC50 in test [1] stood at 1.8 µM. Besides, the results for the EC50 in test [2] and in test [3] were more than 10 µM and 1.75 µM, respectively.

As for `O[C@@H](c1c(C2CC2)ccc2cncn12)[C@H]1CC[C@H](c2cccc3ncccc32)CC1` (single isomer, unassigned) [Example D141b], the IC50 in test [1] amounted to 3.8 µM. The EC50 in test [2] is more than 10 µM; in test [3], 7.58 µM.

On to `O[C@H](c1c(C2CC2)ccc2cncn12)[C@H]1CC[C@H](c2cc(F)cc(F)c2)CC1` (single isomer, unassigned) [Example D144a], for which the IC50 in test [1] amounted to 0.023 µM. For the same compound, the EC50 in test [2] is more than 10 µM; in test [3], 0.052 µM.

Turning to `O[C@@H](c1c(C2CC2)ccc2cncn12)[C@H]1CC[C@H](c2cc(F)cc(F)c2)CC1` (single isomer, unassigned) [Example D144b], the IC50 in test [1] was 8 µM. For the same compound, the half-maximal effective concentration (EC50) was more than 10 µM in test [2] and 6.41 µM in test [3].

As for `O[C@@H](c1c(C2CC2)ccc2cncn12)[C@H]1CC[C@H](c2ccc(F)c(F)c2F)CC1` (single isomer, unassigned) [Example D145b], the IC50 in test [1] is more than 10 µM. The results for the EC50 in test [2] and in test [3] were more than 10 µM and 9.49 µM, respectively.

With `COc1ccc([C@H]2CC[C@H](C(O)c3c(C4CC4)ccc4cncn34)CC2)c(F)c1` (single isomer, unassigned) [Example D146a], in test [1], the IC50 is 0.019 µM. In addition, the concentration for a half-maximal effect (EC50) in test [2] is more than 10 µM; in test [3], 0.122 µM.
